Laboratory results as given in the NIST ThermoML archive (doi:10.1021/acs.jced.5b00606).
± gives the expanded uncertainty stated by the source.

Tests used:
[1] = Molar enthalpy of transition or fusion; conditions: Crystal; Drop ice or diphenyl ether calorimetry
[2] = for vapor or sublimation pressure: Liquid, Transpiration method

c1cn2ccnc2cn1 [imidazo[1,2-a]pyrazine]
Conditions	Molar enthalpy of transition or fusion [kcal/mol]
[1]	3.66 ± 0.621

[2]
Conditions	vapor or sublimation pressure [kPa]
369.6 K	0.1641 ± 0.018
373.8 K	0.2038 ± 0.022
379 K	0.2643 ± 0.028
383 K	0.34 ± 0.036
385.2 K	0.373 ± 0.04
388.2 K	0.4381 ± 0.047
390.2 K	0.4952 ± 0.053
393.4 K	0.5831 ± 0.062

Conditions	Triple point temperature [K]
[2], Crystal, DTA	359.2 ± 1.3
